# Measurements reported in US20240398806A1, “Compositions For and Methods of Treating and/or Preventing Pain” (Duke University, priority 2021, published 2024).
# Read-outs that look alike come from different tables or passages of the source.
# Key:
# [1] = Pharmacokinetics in monkey (IV and PO); format: in vivo; conditions: for AUC: monkey; for MRT last: read-out: MRT0-last
# NTSR2 = target: T1, NTSR2 (Homo sapiens, UniProt O95665); test: Cellular assay of β-arrestin-2 translocation in cells expressing NTSR2; format: cell-based
# T1 construct: expressed in transfected cells; host or cells: HEK293 cells
# Description: (§1) First, using cellular assays, whether IND candidates such as SBI-810 are similar or better than SBI-553 as β-arrestin biased agonist at NTSR1. is assessed. The chemical entities used in this work were synthesized and validated. However, routine validation of the profile of these compounds is performed routinely using both cellular and in vivo assays. For example, HEK293 cells that express either the NTSR1 or NTSR2 are used to assess the functional profile of the various chemical probes. In addition, a series of genetically engineered mouse lines are used to provide an in vivo validation of novel chemical entities for their abilities to module behaviors in these animals.
# (§2) Fourth, cellular assays are used to establish that IND ready analogs like SBI-810 are still selective for the NTSR1 rather than NTSR2. The specificity of the lead compounds toward NTSR1. NTSR2. and β-arrestin-2 are tested in respective cellular assays. More specifically, cells expressing either NTSR1 or NTSR2 are used to assess the function of various compound. […] This translocation is not observed in cells expressing NTSR2.
# (§3) Fourth, genetically engineered mice are used to assess the effects and mechanisms of novel ligands. The specificity of the lead compounds toward NTSR1, NTSR2, and β-arrestin-2 dependent signaling is examined. […]
# [2] = Pain models with systemic (IP or oral) administration; format: in vivo, mice and rats
# NTSR1 [3] = target: T2, NTSR1 (Homo sapiens, UniProt P30989); test: Cellular assay of β-arrestin-2 translocation in cells expressing NTSR1; format: cell-based; parameters: expressed in transfected cells; host or cells: HEK293T cell membranes
# Description: as §1, §2, §3
# lamina IIo neurons = tested on: lamina IIo neurons; parameters: dose or concentration left out as unconfirmed; conditions: slices of PTX-treated mice
# NTSR1 [4] = target: T2, NTSR1; test: [3H]SBI-553 saturation binding to NTSR1-containing HEK293T cell membranes; parameters: expressed in transfected cells; host or cells: HEK293T cell membranes; conditions: by the named competitor
# NMDAR = format: cell-based; conditions: Arrb2-KO mice; NMDA 50 mM as printed
# Description: In FIG. 9B-FIG. 9D. *p<0.05 as determined by a two-way or one-way ANOVA.
# Spinal cord NMDAR plays a critical role in driving inflammatory and neuropathic pain (Woolf C J, et al. (2000) Science. 288(5472):1765-1769). Using spinal cord slice preparations, NMDA (50 mM) induced inward currents in spinal cord out lamina II (IIo) neurons were recorded in WT and Arrb2-KO mice. […] Similarly, duration of intrathecal (i.t.) NMDA-induced spontaneous pain was also potentiated in the KO mice (FIG. 9C).
# T2 sequence (P30989 whole entry): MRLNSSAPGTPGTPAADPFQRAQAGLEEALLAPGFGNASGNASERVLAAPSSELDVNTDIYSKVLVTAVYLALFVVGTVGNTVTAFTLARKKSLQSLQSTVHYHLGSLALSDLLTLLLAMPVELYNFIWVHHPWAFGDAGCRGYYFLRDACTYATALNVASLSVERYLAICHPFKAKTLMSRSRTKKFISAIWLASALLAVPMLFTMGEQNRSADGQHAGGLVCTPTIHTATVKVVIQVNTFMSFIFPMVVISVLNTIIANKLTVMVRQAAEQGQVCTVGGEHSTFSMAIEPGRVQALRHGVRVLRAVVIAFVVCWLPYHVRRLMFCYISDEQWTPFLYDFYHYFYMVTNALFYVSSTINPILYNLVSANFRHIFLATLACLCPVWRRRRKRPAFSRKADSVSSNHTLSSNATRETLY
# T1 sequence (O95665 whole entry, species assumed): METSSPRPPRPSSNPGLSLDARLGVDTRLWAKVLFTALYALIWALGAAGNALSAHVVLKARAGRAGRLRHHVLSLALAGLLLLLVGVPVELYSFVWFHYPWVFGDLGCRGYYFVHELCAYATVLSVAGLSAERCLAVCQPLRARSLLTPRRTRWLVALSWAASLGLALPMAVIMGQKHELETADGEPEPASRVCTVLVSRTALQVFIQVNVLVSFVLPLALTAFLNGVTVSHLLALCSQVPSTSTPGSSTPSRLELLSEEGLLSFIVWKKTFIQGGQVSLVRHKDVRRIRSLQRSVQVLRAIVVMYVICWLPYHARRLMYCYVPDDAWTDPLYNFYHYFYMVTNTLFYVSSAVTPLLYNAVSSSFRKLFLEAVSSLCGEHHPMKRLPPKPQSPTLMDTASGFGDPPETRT
smiles,measurement,setting,value
COc1ccccc1C1CCN(c2nc(C3(C)CC3)nc3ccc(N(C)CCO)cc23)CC1 [SBI-810],Co,"[1]; Monkey, IV 5 mg/kg",4702 ng/mL
same,T2/2,"[1]; Monkey, IV 5 mg/kg",6.54 h
same,CI,"[1]; Monkey, PO 20 mg/kg",5.2 mL/min/kg
same,Co,"[1]; Monkey, PO 20 mg/kg",314 ng/mL
same,Oral availability,[1]; compared with SBI-553,enhanced oral availability
same,Levels in plasma,[1]; following i.v. and p.o. dosing,good levels in plasma
same,AUC,"[1]; plasma, iv, 5 mg/kg, Monkey, IV 5 mg/kg, read-out: AUCo-inf",4340 ng·h/mL
same,AUC,"[1]; plasma, iv, 5 mg/kg, Monkey, IV 5 mg/kg, read-out: AUCo-last",4210 ng·h/mL
same,AUC,"[1]; plasma, po, 20 mg/kg, Monkey, PO 20 mg/kg, read-out: AUCo-inf",2230 ng·h/mL
same,AUC,"[1]; plasma, po, 20 mg/kg, Monkey, PO 20 mg/kg, read-out: AUCo-last",2120 ng·h/mL
same,clearance,"[1]; plasma, Monkey, IV 5 mg/kg",19.2 mL/min/kg
same,MRT last,"[1]; plasma, Monkey, IV 5 mg/kg",3.4 h
same,Vd,"[1]; plasma, Monkey, IV 5 mg/kg, read-out: Vdss",5 L/kg
same,half-life,"[1]; plasma, Monkey, PO 20 mg/kg",4 h
same,MRT last,"[1]; plasma, Monkey, PO 20 mg/kg",8 h
same,Translocation of β-arrestin-2 to intracellular compartments,NTSR2,not observed
same,Pain reduction compared with SBI-553,[2],more effective in reducing pain than SBI-553
same,Translocation of β-arrestin-2 to intracellular compartments,NTSR1 [3],demonstrate translocation of β-arrestin-2
"CN1CC[C@]23c4c5ccc(O)c4O[C@H]2[C@@H](O)C=C[C@H]3[C@H]1C5 [morphine, reference compound]",Excitatory synaptic transmission (sEPSCs) in lamina IIo neurons,lamina IIo neurons,did not produce significant inhibition
"COc1cccc(OC)c1-c1cc(C(=O)NC2(C(=O)O)C3CC4CC(C3)CC2C4)nn1-c1ccc(C(=O)N(C)CCCN(C)C)cc1C(C)C (stereo not drawn) [SR142948A, reference compound]",Displacement of [3H]SBI-553 from NTSR1,NTSR1 [4],not displaced
C[C@@H](CN1CCC(Cc2ccccc2)CC1)[C@@H](O)c1ccc(O)cc1 [Ro25],Block of the increase in NMDA current amplitude caused by Arrb2 deficiency,NMDAR,dose-dependently blocked
